One assay has as its target LRRK2 wild type enzyme (Homo sapiens, UniProt Q5S007). Description: Biochemical Assay: LRRK2 TR-FRET (LanthaScreen) kinase assay with LRRKtide substrate. The note with it: LRRK2 Inhibition, Table 8. In outline: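 TR-FRET detection (Tb-labelled phospho-LRRKtide antibody, EDTA stop, 30 min) followed a 120 min, 23 °C reaction of 3 nM wild-type human LRRK2 with LRRKtide (400 nM) and ATP (25 μM) in Tris pH 8.0. Compounds: 11-point 3-fold series from 10 μM, 15 min enzyme preincubation.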

Assay [1] deals with T1, wild type LRRK2 overexpressed in recombinant HEK-293T cells (Homo sapiens, UniProt Q5S007).
T1 construct: host or cells: HEK293T (transient transfection with pCMV-LRRK2 WT plasmid)
Put plainly: pS935 LRRK2 Cell Assay (HTRF, phospho-LRRK2 Ser935). The format is cell-based. The note with it: LRRK2 Inhibition, Table 8, 2 hours compound incubation. In outline: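 Phospho-Ser935 LRRK2 measured by two-antibody HTRF (Eu-cryptate donor, d2 acceptor; 665/615 nm ratio) after overnight detection at 23° C. Before lysis, transiently LRRK2-transfected HEK-293T cells were exposed 2 h at 37° C to a 9-point, 3-fold series from 10 μM, with DMSO at 0.2%.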
A general note: In TR-FRET formats the signal depends on donor and acceptor labels being close together.

T1 sequence (Q5S007 whole entry): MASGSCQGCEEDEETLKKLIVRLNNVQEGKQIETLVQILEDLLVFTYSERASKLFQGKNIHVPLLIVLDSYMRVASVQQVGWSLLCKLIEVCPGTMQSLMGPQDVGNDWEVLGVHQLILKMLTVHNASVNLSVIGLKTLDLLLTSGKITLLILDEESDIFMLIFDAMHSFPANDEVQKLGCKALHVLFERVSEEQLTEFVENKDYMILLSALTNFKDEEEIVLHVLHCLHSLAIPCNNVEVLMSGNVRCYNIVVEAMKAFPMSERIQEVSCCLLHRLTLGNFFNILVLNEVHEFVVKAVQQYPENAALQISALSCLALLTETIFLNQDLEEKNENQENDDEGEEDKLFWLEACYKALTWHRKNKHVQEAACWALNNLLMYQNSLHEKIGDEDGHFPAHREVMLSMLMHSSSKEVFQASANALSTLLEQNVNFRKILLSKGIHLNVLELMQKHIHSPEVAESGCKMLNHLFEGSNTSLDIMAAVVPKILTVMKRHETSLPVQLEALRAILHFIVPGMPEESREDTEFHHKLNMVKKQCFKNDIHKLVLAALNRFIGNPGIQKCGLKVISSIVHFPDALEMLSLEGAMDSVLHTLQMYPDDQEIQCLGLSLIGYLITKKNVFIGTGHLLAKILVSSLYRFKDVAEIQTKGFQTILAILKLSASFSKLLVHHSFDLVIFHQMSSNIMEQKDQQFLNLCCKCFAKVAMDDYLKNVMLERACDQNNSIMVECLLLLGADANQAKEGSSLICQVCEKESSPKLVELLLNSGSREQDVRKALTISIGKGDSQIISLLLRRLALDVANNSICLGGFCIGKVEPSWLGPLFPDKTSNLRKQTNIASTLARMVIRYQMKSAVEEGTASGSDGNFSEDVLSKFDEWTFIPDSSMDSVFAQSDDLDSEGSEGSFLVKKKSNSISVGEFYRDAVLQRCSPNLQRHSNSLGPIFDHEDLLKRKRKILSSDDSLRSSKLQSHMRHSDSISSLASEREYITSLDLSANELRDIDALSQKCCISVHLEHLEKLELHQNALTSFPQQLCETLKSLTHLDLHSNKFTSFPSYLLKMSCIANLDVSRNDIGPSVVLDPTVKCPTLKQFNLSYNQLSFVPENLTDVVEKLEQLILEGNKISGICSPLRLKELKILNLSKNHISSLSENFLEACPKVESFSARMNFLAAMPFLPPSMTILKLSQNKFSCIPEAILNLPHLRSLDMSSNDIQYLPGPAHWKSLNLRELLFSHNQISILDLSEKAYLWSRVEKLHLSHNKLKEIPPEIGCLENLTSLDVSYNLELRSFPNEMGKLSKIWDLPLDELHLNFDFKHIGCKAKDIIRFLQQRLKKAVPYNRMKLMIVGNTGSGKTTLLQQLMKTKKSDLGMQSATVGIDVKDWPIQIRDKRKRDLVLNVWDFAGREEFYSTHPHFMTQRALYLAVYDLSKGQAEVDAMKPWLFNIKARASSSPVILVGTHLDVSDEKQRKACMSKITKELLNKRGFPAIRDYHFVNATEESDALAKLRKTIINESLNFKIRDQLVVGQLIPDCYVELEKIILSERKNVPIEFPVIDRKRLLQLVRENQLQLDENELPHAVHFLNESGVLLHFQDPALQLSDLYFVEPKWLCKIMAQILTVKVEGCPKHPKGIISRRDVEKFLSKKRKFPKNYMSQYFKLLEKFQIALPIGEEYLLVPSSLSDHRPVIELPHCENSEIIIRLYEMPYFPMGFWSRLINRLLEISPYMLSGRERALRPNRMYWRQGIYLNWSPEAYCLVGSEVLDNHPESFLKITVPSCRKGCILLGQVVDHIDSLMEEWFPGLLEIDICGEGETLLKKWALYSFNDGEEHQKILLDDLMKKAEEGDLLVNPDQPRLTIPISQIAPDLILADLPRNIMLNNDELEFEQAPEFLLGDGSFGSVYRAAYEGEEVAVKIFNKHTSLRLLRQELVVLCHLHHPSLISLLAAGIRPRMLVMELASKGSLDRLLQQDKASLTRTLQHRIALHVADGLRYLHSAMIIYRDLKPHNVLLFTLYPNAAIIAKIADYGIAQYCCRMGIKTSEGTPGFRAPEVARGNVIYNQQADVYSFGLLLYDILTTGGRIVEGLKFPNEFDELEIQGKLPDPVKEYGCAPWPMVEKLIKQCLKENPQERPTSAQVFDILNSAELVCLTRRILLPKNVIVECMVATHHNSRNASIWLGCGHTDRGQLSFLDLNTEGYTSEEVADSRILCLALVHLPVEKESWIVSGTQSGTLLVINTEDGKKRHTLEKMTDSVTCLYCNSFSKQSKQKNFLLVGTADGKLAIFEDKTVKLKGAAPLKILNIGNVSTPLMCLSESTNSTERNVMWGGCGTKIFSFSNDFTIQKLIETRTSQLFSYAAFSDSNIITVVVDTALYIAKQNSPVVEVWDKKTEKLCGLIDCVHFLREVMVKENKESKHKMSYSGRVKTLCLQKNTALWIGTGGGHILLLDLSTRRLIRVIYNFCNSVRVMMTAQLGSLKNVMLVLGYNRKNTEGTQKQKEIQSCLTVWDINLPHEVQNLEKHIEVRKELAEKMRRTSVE
LRRK2 wild type enzyme, sequence (Q5S007 whole entry): as above

On to `C[C@@H]1C[C@H](n2c(CC(=O)Nc3cnn(C)c3CO)nc3cnc4ccc(C#N)cc4c32)CCO1` [Compound 158, 2-{8-cyano-1-[(2R,4R)-2-methyloxan-4-yl]-1H-imidazo[4,5-c]quinolin-2-yl}-N-[5-(hydroxymethyl)-1-methyl-1H-pyrazol-4-yl]acetamide], for which the IC50 on LRRK2 wild type enzyme came to 0.454 nM; in assay [1], 272 nM.

`C[C@@H]1C[C@H](n2c(C3CC(=O)N(c4ccnn4C)C3)nc3cnc4ccc(C#N)cc4c32)CCO1` (stereo partly drawn) [Compound 103, 2-[1-(1-methyl-1H-pyrazol-5-yl)-5-oxopyrrolidin-3-yl]-1-[(2R,4R)-2-methyloxan-4-yl]-1H-imidazo[4,5-c]quinoline-8-carbonitrile]: the values for the half-maximal inhibitory concentration (IC50) (at LRRK2 wild type enzyme; in assay [1]) were 1.98 nM and 400 nM, respectively.

For `C[C@@H]1C[C@H](n2c(CC(=O)Nc3ccn(C)c(=O)c3)nc3cnc4ccc(C#N)cc4c32)CCO1` [Compound 280, N-(1-methyl-2-oxo-1,2-dihydro-4-pyridyl){3-[(2R,4R)-2-methyltetrahydro-2H-pyran-4-yl]-12-cyano-3,5,8-triazatricyclo[7.4.0.0^2,6]trideca-1,4,6,8,10,12-hexaen-4-yl}acetamide], the results for the IC50 (against LRRK2 wild type enzyme; in assay [1]) were 0.373 nM and 495 nM, respectively.

On to `C[C@@H]1C[C@H](n2c(CNc3ncccn3)nc3cnc4ccc(C#N)cc4c32)CCO1` [Compound 105, 1-[(2R,4R)-2-methyloxan-4-yl]-2-{[(pyrimidin-2-yl)amino]methyl}-1H-imidazo[4,5-c]quinoline-8-carbonitrile], for which the IC50 turned out to be 3.5 nM at LRRK2 wild type enzyme and 240 nM in assay [1].

On to `COc1nc(C)ncc1NC(=O)Cc1nc2cnc3ccc(C#N)cc3c2n1[C@@H]1CCO[C@H](C)C1` [Compound 248, N-(4-methoxy-2-methyl-5-pyrimidinyl){3-[(2R,4R)-2-methyltetrahydro-2H-pyran-4-yl]-12-cyano-3,5,8-triazatricyclo[7.4.0.0^2,6]trideca-1(9),2(6),4,7,10,12-hexaen-4-yl}acetamide], for which the half-maximal inhibitory concentration (IC50) against LRRK2 wild type enzyme was 0.4 nM; in assay [1], 4.2 nM.

In the case of `C[C@@H]1C[C@H](n2c([C@H]3CC(=O)N(c4cnn(C)c4)C3)nc3cnc4ccc(C#N)cc4c32)CCO1` [Compound 47, 2-[(3S)-1-(1-methyl-1H-pyrazol-4-yl)-5-oxopyrrolidin-3-yl]-1-[(2R,4R)-2-methyloxan-4-yl]-1H-imidazo[4,5-c]quinoline-8-carbonitrile], the IC50 on LRRK2 wild type enzyme is 141 nM; in assay [1], 9880 nM.

Regarding `COc1ncc(NC(=O)Cc2nc3cnc4ccc(C#N)cc4c3n2[C@@H]2CCO[C@H](C)C2)cn1` [Compound 291, N-(2-methoxy-5-pyrimidinyl){3-[(2R,4R)-2-methyltetrahydro-2H-pyran-4-yl]-12-cyano-3,5,8-triazatricyclo[7.4.0.0^2,6]trideca-1,4,6,8,10,12-hexaen-4-yl}acetamide], the IC50 at LRRK2 wild type enzyme was determined as 0.527 nM; in assay [1], 18 nM.

For `COCC1(NC(=O)Cc2nc3cnc4ccc(C#N)cc4c3n2[C@@H]2CCO[C@H](C)C2)CC1` [Compound 276], the IC50 at LRRK2 wild type enzyme came out at 0.922 nM; in assay [1] it was 86 nM.

Take `C[C@@H]1C[C@H](n2c(CC(=O)Nc3cnccc3O)nc3cnc4ccc(C#N)cc4c32)CCO1` [Compound 208, N-(4-hydroxy-3-pyridyl){3-[(2R,4R)-2-methyltetrahydro-2H-pyran-4-yl]-12-cyano-3,5,8-triazatricyclo[7.4.0.0^2,6]trideca-1,4,6,8,10,12-hexaen-4-yl}acetamide]: the IC50 stood at 0.582 nM against LRRK2 wild type enzyme and 4930 nM in assay [1].

Consider `C[C@@H]1C[C@H](n2c(CC3CN(C(=O)c4cnn(C)c4)C3)nc3cnc4ccc(C#N)cc4c32)CCO1` [Compound 60, 2-{[1-(1-methyl-1H-pyrazole-4-carbonyl)azetidin-3-yl]methyl}-1-[(2R,4R)-2-methyloxan-4-yl]-1H-imidazo[4,5-c]quinoline-8-carbonitrile], for which the results for the concentration for half-maximal inhibition (IC50) (on LRRK2 wild type enzyme; in assay [1]) were 4.29 nM and 1550 nM, respectively.

With `Cc1cc(NC(=O)Cc2nc3cnc4ccc(C#N)cc4c3n2[C@@H]2CCO[C@H](C)C2)no1` [Compound 156, 2-{8-cyano-1-[(2R,4R)-2-methyloxan-4-yl]-1H-imidazo[4,5-c]quinolin-2-yl}-N-(5-methyl-1,2-oxazol-3-yl)acetamide], the results for the half-maximal inhibitory concentration (IC50) (against LRRK2 wild type enzyme; in assay [1]) were 0.529 nM and 6.83 nM, respectively.

For `C[C@@H]1C[C@H](n2c(CC(=O)Nc3ccc(Cl)nc3)nc3cnc4ccc(C#N)cc4c32)CCO1` [Compound 297, N-(6-chloro-3-pyridyl){3-[(2R,4R)-2-methyltetrahydro-2H-pyran-4-yl]-12-cyano-3,5,8-triazatricyclo[7.4.0.0^2,6]trideca-1,4,6,8,10,12-hexaen-4-yl}acetamide], the IC50 is 0.225 nM at LRRK2 wild type enzyme and 3.99 nM in assay [1].

As for `C[C@@H]1C[C@H](n2c(CC(=O)NCc3ncccn3)nc3cnc4ccc(Cl)cc4c32)CCO1` [Compound 142, 2-{8-chloro-1-[(2R,4R)-2-methyloxan-4-yl]-1H-imidazo[4,5-c]quinolin-2-yl}-N-[(pyrimidin-2-yl)methyl]acetamide], the 50% inhibitory concentration (IC50) came to 0.565 nM on LRRK2 wild type enzyme and 17.8 nM in assay [1].

For `C[C@@H]1C[C@H](n2c(CC(=O)NC3CC3(F)F)nc3cnc4ccc(C#N)cc4c32)CCO1` (stereo partly drawn) [Compound 288, N-2,2-difluorocyclopropyl{3-[(2R,4R)-2-methyltetrahydro-2H-pyran-4-yl]-12-cyano-3,5,8-triazatricyclo[7.4.0.0^2,6]trideca-1,4,6,8,10,12-hexaen-4-yl}acetamide], the figures for the 50% inhibitory concentration (IC50) (at LRRK2 wild type enzyme; in assay [1]) were 0.642 nM and 39 nM, respectively.

On to `C[C@@H]1C[C@H](n2c(CC(=O)N[C@@H]3C[C@H]3F)nc3cnc4ccc(C#N)cc4c32)CCO1` [Compound 277, N-[(1R,2R)-2-fluorocyclopropyl]{3-[(2R,4R)-2-methyltetrahydro-2H-pyran-4-yl]-12-cyano-3,5,8-triazatricyclo[7.4.0.0^2,6]trideca-1(13),2(6),4,7,9,11-hexaen-4-yl}acetamide], for which the IC50 turned out to be 0.828 nM at LRRK2 wild type enzyme and 52.2 nM in assay [1].

In the case of `Cc1nc(CNC(=O)Cc2nc3cnc4ccc(C#N)cc4c3n2[C@@H]2CCO[C@H](C)C2)no1` [Compound 259, N-[(5-methyl-1,2,4-oxadiazol-3-yl)methyl]{3-[(2R,4R)-2-methyltetrahydro-2H-pyran-4-yl]-12-cyano-3,5,8-triazatricyclo[7.4.0.0^2,6]trideca-1(9),2(6),4,7,10,12-hexaen-4-yl}acetamide], the 50% inhibitory concentration (IC50) turned out to be 1.34 nM against LRRK2 wild type enzyme and 132 nM in assay [1].

With `C[C@@H]1C[C@H](n2c(C3CC(=O)N(c4cnn(C)c4)C3)nc3cnc4ccc(Cl)cc4c32)CCO1` (stereo partly drawn) [Compound 108, 4-{8-chloro-1-[(2R,4R)-2-methyloxan-4-yl]-1H-imidazo[4,5-c]quinolin-2-yl}-1-(1-methyl-1H-pyrazol-4-yl)pyrrolidin-2-one], the IC50 on LRRK2 wild type enzyme worked out at 0.981 nM; in assay [1], 42.8 nM.

Regarding `COc1ncncc1NC(=O)Cc1nc2cnc3ccc(C#N)cc3c2n1[C@@H]1CCO[C@H](C)C1` [Compound 251, N-(4-methoxy-5-pyrimidinyl){3-[(2R,4R)-2-methyltetrahydro-2H-pyran-4-yl]-12-cyano-3,5,8-triazatricyclo[7.4.0.0^2,6]trideca-1(9),2(6),4,7,10,12-hexaen-4-yl}acetamide], the IC50 was determined as 0.382 nM on LRRK2 wild type enzyme and 3.56 nM in assay [1].

Usually IC50 stands for the concentration that gives 50% inhibition.

For the origin of these results see US20250270209A1 (INTERLINE THERAPEUTICS, INC., priority 2022, published 2025).
